Earlier results, collected in patent publication EP0970199B1, “FLUORESCENT PROTEIN SENSORS FOR DETECTION OF ANALYTES” (The Regents of the University of California, priority 1997, dated 1998).

Conditions: fluorescein in 0.1 N NaOH; 9-aminoacridine in water

SMILES: Nc1c2ccccc2nc2ccccc12 [9-aminoacridine]
- quantum yield of standard: 0.98
